Earlier results as cited in patent publication US20120183587A1, “FLAVONOL COMPOSITIONS” (priority 2011, published 2012).

Details: Guglen et al., Eur. J. Clin. Pharmacol. 1975

extent of absorption from an oral dose: about 1%
SMILES: O=c1c(O)c(-c2ccc(O)c(O)c2)oc2cc(O)cc(O)c12 [quercetin, 3,3′,4′,5,7-pentahydroxy-2-phenylchromen-4-one]
